# Laboratory results as given in patent US8785452B2, “Anti-infective compounds” (priority 2008, dated 2014).
# Read-outs that look alike come from different tables or passages of the source.
# Assays:
# [1] = test system: M. tuberculosis H37Rv-GFP; test: microbe, parasite or virus in culture; format: cell-based; conditions: Mycobacterium tuberculosis; for inhibition at 0.2 µM: read-out: QUM Confirm % Inhibition 0.2 uM; for inhibition at 2 µM: read-out: QUM Confirm % Inhibition 2 uM; for inhibition at 20 µM: read-out: QUM Confirm % Inhibition 20 uM
# [2] = test system: Raw264.7 cells; test: Cell number (CellNb) from image analysis of the phenotypic cell-based assay
# [3] = test system: M. tuberculosis H37Rv-GFP; test: microbe, parasite or virus in culture; format: cell-based, Mycobacterium tuberculosis; conditions: Mycobacterium tuberculosis, H37RV, Macrophage; for inhibition at 0.2 µM: read-out: QIM Confirm % Inhibition 0.2 uM; for inhibition at 2 µM: read-out: QIM Confirm % Inhibition 2 uM
# [4] = confirmation, 0.2 uM, intracellular
# [5] = confirmation, 2 uM, intracellular
# [6] = confirmation, 20 uM, read-out: QIM Confirm % Inhibition 20 uM
# [7] = primary screen, 20 μM, read-out: Primary QIM % Inhibition
# [8] = read-out: Primary QIM % Inhibition
# [9] = read-out: QIM Confirm % Inhibition 20 uM
SMILES,inhibition at 0.2 µM [1],inhibition at 2 µM [1],inhibition at 20 µM [1],"QIM Confirm CellNb 0.2 uM ([2]; confirmation, 0.2 uM)","QIM Confirm CellNb 2 uM ([2]; confirmation, 2 uM)","QIM Confirm CellNb 20 uM ([2]; confirmation, 20 uM)","Primary QIM CellNb ([2]; primary screen, 20 μM)","inhibition at 0.2 µM [3, 4]","inhibition at 2 µM [3, 5]","inhibition at 20 µM [3, 6]","inhibition at 20 µM [3, 7]",Primary QIM CellNb [2],QIM Confirm CellNb 0.2 uM [2],QIM Confirm CellNb 2 uM [2],QIM Confirm CellNb 20 uM [2],"inhibition at 20 µM [3, 8]",inhibition at 0.2 µM [3],inhibition at 2 µM [3],"inhibition at 20 µM [3, 9]"
O=C(Oc1cccc2cccnc12)c1cccc([N+](=O)[O-])c1 [IPK 000 018 66],39.3%,72%,99.6%,258.1,296.6,130.4,63.3,8.6%,0.4%,16.7%,-26.8%,,,,,,,,
N#Cc1ccccc1NC(=O)CSc1nc2ccccc2s1 [IPK 000 018 97],40.5%,33.9%,36.1%,288.5,299.8,553.9,314.0,7.3%,20%,83.8%,76.7%,,,,,,,,
CC(C)(C)C(=O)Nc1ccccc1C(=O)N1CCOCC1 [IPK 000 021 87],49.1%,42.9%,41.9%,305.3,403.4,609.0,405.0,15.4%,29.8%,96.5%,90.2%,,,,,,,,
O=C(Nc1ccc([N+](=O)[O-])cc1)C12CC3CC(CC(C3)C1)C2 [IPK 000 022 33],35.7%,45.4%,74.2%,315.6,472.3,517.1,372.0,30.3%,33.5%,90%,66%,,,,,,,,
CCCSc1nnc(-c2ccc(Cl)cc2Cl)o1 [IPK 000 024 43],34.7%,40.1%,67.7%,352.1,349.0,205.0,203.8,50.4%,58.3%,59.1%,5.8%,,,,,,,,
O=C(NCCOc1ccccc1Cl)c1cc([N+](=O)[O-])cc([N+](=O)[O-])c1 [IPK 000 027 72],35.1%,97.6%,101%,267.0,440.4,238.1,333.3,29.3%,77.7%,100%,82.6%,,,,,,,,
COc1ccccc1OCCNC(=O)c1cc([N+](=O)[O-])cc([N+](=O)[O-])c1 [IPK 000 027 74],43.5%,97.5%,100%,,,,,,,,,366.0,268.5,478.8,435.8,87.2%,-2.7%,83.3%,96.9%
COc1cccc(OCCNC(=O)c2cc([N+](=O)[O-])cc([N+](=O)[O-])c2)c1 [IPK 000 027 77],40.2%,96.8%,100%,,,,,,,,,378.0,218.1,315.3,322.3,89.1%,-12.6%,47.7%,86.3%
CC(C)c1ccc(CNC(=O)c2cc([N+](=O)[O-])cc([N+](=O)[O-])c2)cc1 [IPK 000 027 78],71.7%,97.5%,78.2%,366.0,543.5,499.4,332.0,33%,99.3%,96.3%,79.6%,,,,,,,,
O=C(NCc1ccc2c(c1)OCO2)c1cc([N+](=O)[O-])cc([N+](=O)[O-])c1 [IPK 000 027 85],97.2%,97.9%,71.7%,429.3,487.4,224.8,315.0,83%,99.4%,40.1%,100%,,,,,,,,
O=C(NCCOCc1ccccc1)c1cc([N+](=O)[O-])cc([N+](=O)[O-])c1 [IPK 000 027 91],65.8%,97.6%,75%,,,,,,,,,410.8,295.3,434.1,325.6,89%,14.2%,98.5%,46.1%
COc1ccc(OCCNC(=O)c2cc([N+](=O)[O-])cc([N+](=O)[O-])c2)cc1 [IPK 000 028 35],94%,98.1%,48.3%,,,,,,,,,315.3,489.8,478.6,308.9,94.5%,64.5%,102%,17.8%
O=C(Nc1ccc(Oc2ccccc2)cc1)C1CCCO1 (stereo not shown) [IPK 000 033 16],34.1%,42%,61.3%,296.1,573.9,303.9,283.0,5%,69.6%,92.3%,81.9%,,,,,,,,
CCOC(=O)/N=C(\NC(C)=O)c1cccc(Cl)c1 [IPK 000 033 61],51.6%,37.6%,67.1%,210.8,434.1,111.8,188.3,16.2%,13.8%,62.9%,31.6%,,,,,,,,
C/C(=N\NOCc1cc([N+](=O)[O-])cc([N+](=O)[O-])c1)c1ccccc1 [IPK 000 035 56],41.5%,39.6%,65.6%,247.1,313.1,524.3,266.0,9.1%,18.8%,89%,83.3%,,,,,,,,
CCc1nnc(NS(=O)(=O)c2ccc(N)cc2)s1 [IPK 000 035 58],45.1%,46.4%,65.3%,292.3,330.0,279.9,104.0,5.1%,34.4%,2.8%,-51.3%,,,,,,,,
CCCCS(=O)(=O)/C=C\C=C\S(=O)(=O)CCCC [IPK 000 036 07],42.3%,47.9%,70.6%,267.4,293.9,164.4,142.3,17.2%,32%,59.5%,27.7%,,,,,,,,
O=[N+]([O-])c1ccc(/C=N/c2ccccc2O)cc1 [IPK 000 040 14],38.7%,46.8%,68.4%,321.4,262.3,330.0,95.5,20.4%,15.6%,18.1%,-38.6%,,,,,,,,
O=C(N/N=C/c1ccccc1O)c1ccncc1 [IPK 000 041 45],38.4%,47.4%,100%,437.4,527.9,243.8,324.5,56.7%,103%,87.2%,88.6%,,,,,,,,
O=C(N/N=C/c1cccc2ccccc12)c1ccncc1 [IPK 000 041 46],41.1%,81.4%,57.9%,386.9,542.6,347.1,320.0,41.8%,101%,93.3%,81.2%,,,,,,,,
